Experimental data as given in patent publication US11890288B2, “Sulfonamide or sulfinamide compound having effect of inducing BRD4 protein degradation and pharmaceutical use thereof” (MITSUBISHI TANABE PHARMA CORPORATION, priority 2020, dated 2024).
pIC50: −log10 of the molar value.

Assays:
[1] = tested on: human prostate cancer LNCaP cells; assay: Cytotoxic action on LNCaP cells (WST-8, 96 hr); assay type: cell-based; details: 96 hr culture
In short: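 Cells in 10% FBS/RPMI1640 plated overnight at 37° C, 5% CO2, then exposed to compound (DMSO stock diluted in medium) for 96 hr. Viable cells measured by WST-8. IC50 = concentration giving 50% survival versus untreated, interpolated linearly between the two bracketing points.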

BRD4 protein = BRD4 protein (Homo sapiens (Human), UniProt O60885); assay: BRD4 protein degradation inducing action in LNCaP cells (immunofluorescence, 6 hr); assay type: cell-based; details: anti-BRD4 fluorescence intensity
In short: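 LNCaP cells in 10% FBS/RPMI1640 exposed to compound for 6 hr, fixed, permeabilized and immunostained for BRD4 with Alexa Fluor 546 secondary; fluorescence (ex 560, em 572 nm) read by imaging. DC50 = concentration giving 50% of untreated signal, interpolated linearly between the two bracketing points.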

Question: What does the source list for `COC(=O)C[C@@H]1N=C(c2ccc(-c3ccc(C(=O)N[C@H](C)c4ccc(S(=O)(=O)Nc5ccc(C)c6c(C#N)c[nH]c56)cc4)cc3C)cc2)c2c(sc(C)c2C)-n2c(C)nnc21` [Example 88, methyl [(6S)-4-(4′-{[(1R)-1-{4-[(3-cyano-4-methyl-1H-indol-7-yl)sulfamoyl]phenyl}ethyl]carbamoyl}-2′-methyl[1,1′-biphenyl]-4-yl)-2,3,9-trimethyl-6H-thieno[3,2-f][1,2,4]triazolo[4,3-a][1,4]diazepin-6-yl]acetate]?
Answer: pIC50 [1]: 9.77; DC50 (BRD4 protein): 370 pM

Question: Which results are given for `COC(=O)C[C@@H]1N=C(c2ccc(-c3ccc(C(=O)NCCc4ccc(S(=O)(=O)Nc5ccc(C)c6c(C#N)c[nH]c56)cc4)cc3C)cc2)c2c(sc(C)c2C)-n2c(C)nnc21` [Example 89, methyl [(6S)-4-{4′-[(2-{4-[(3-cyano-4-methyl-1H-indol-7-yl)sulfamoyl]phenyl}ethyl)carbamoyl]-2′-methyl [1,1′-biphenyl]-4-yl}-2,3,9-trimethyl-6H-thieno[3,2-f][1,2,4]triazolo[4,3-a][1,4]diazepin-6-yl]acetate]?
Answer: pIC50 [1]: 9.48; DC50 (BRD4 protein): 800 pM

Question: How did the pIC50 [1] turn out when `COC(=O)C[C@@H]1N=C(c2ccc(-c3ccc(C(=O)NCCc4ccc(S(=O)(=O)Nc5ccc(C)c6c(C#N)c[nH]c56)cc4)nc3)cc2)c2c(sc(C)c2C)-n2c(C)nnc21` [Example 90, methyl [(6S)-4-(4-{6-[(2-{4-[(3-cyano-4-methyl-1H-indol-7-yl)sulfamoyl]phenyl}ethyl)carbamoyl]pyridin-3-yl}phenyl)-2,3,9-trimethyl-6H-thieno[3,2-f][1,2,4]triazolo[4,3-a][1,4]diazepin-6-yl]acetate] was run?
Answer: 9.72

Question: And the DC50 (BRD4 protein)?
Answer: 91 pM

Question: With `COC(=O)C[C@@H]1N=C(c2ccc(-c3cnc(C(=O)NCc4ccc(S(=O)(=O)Nc5ccc(C)c6c(C#N)c[nH]c56)cc4)c(C)c3)cc2)c2c(sc(C)c2C)-n2c(C)nnc21` [Example 91, methyl [(6S)-4-(4-{6-[({4-[(3-cyano-4-methyl-1H-indol-7-yl)sulfamoyl]phenyl}methyl)carbamoyl]-5-methylpyridin-3-yl}phenyl)-2,3,9-trimethyl-6H-thieno[3,2-f][1,2,4]triazolo[4,3-a][1,4]diazepin-6-yl]acetate] as the compound, how does the pIC50 [1] read?
Answer: 9.59

Question: And the DC50 (BRD4 protein)?
Answer: 29 pM

Question: What does the source list for `COC(=O)C[C@@H]1N=C(c2ccc(-c3ccc(C(=O)N[C@H](C)c4ccc(S(=O)(=O)Nc5ccc(C)c6c(C#N)c[nH]c56)cc4)nc3)cc2)c2c(sc(C)c2C)-n2c(C)nnc21` [Example 92, methyl {(6S)-4-[4-(6-{[(1R)-1-{4-[(3-cyano-4-methyl-1H-indol-7-yl)sulfamoyl]phenyl}ethyl]carbamoyl}pyridin-3-yl)phenyl]-2,3,9-trimethyl-6H-thieno[3,2-f][1,2,4]triazolo[4,3-a][1,4]diazepin-6-yl}acetate]?
Answer: pIC50 [1]: 10.06; DC50 (BRD4 protein): 41 pM

Question: With `COC(=O)C[C@@H]1N=C(c2ccc(-c3ccc(C(=O)NCc4ccc(S(=O)(=O)Nc5ccc(C)c6c(C#N)c[nH]c56)cc4C)cc3)cc2)c2c(sc(C)c2C)-n2c(C)nnc21` [Example 94, methyl [(6S)-4-{4′-[({4-[(3-cyano-4-methyl-1H-indol-7-yl)sulfamoyl]-2-methylphenyl}methyl)carbamoyl][1,1′-biphenyl]-4-yl}-2,3,9-trimethyl-6H-thieno[3,2-f][1,2,4]triazolo[4,3-a][1,4]diazepin-6-yl]acetate] as the compound, how does the pIC50 [1] read?
Answer: 9.38

Question: What about the DC50 (BRD4 protein) of the same compound?
Answer: 130 pM

Question: How did the pIC50 [1] turn out when `COC(=O)C[C@@H]1N=C(c2ccc(-c3cc(F)c(C(=O)N[C@H](C)c4ccc(S(=O)(=O)Nc5ccc(C)c6c(C#N)c[nH]c56)cc4)cc3F)cc2)c2c(sc(C)c2C)-n2c(C)nnc21` [Example 97, methyl [(6S)-4-(4′-{[(1R)-1-{4-[(3-cyano-4-methyl-1H-indol-7-yl)sulfamoyl]phenyl}ethyl]carbamoyl}-2′,5′-difluoro[1,1′-biphenyl]-4-yl)-2,3,9-trimethyl-6H-thieno[3,2-f][1,2,4]triazolo[4,3-a][1,4]diazepin-6-yl]acetate] was run?
Answer: 9.92

Question: What about the DC50 (BRD4 protein) of the same compound?
Answer: 64 pM

Question: With `COC(=O)C[C@@H]1N=C(c2ccc(-c3cc(C)c(C(=O)N[C@H](C)c4ccc(S(=O)(=O)Nc5ccc(C)c6c(C#N)c[nH]c56)cc4)cc3F)cc2)c2c(sc(C)c2C)-n2c(C)nnc21` [Example 98, methyl [(6S)-4-(4′-{[(1R)-1-{4-[(3-cyano-4-methyl-1H-indol-7-yl)sulfamoyl]phenyl}ethyl]carbamoyl}-2′-fluoro-5′-methyl[1,1′-biphenyl]-4-yl)-2,3,9-trimethyl-6H-thieno[3,2-f][1,2,4]triazolo[4,3-a][1,4]diazepin-6-yl]acetate] as the compound, how does the pIC50 [1] read?
Answer: 9.66

Question: What about the DC50 (BRD4 protein) of the same compound?
Answer: 98 pM

Question: With `COC(=O)C[C@@H]1N=C(c2ccc(-c3ccc(C(=O)N[C@H](C)c4ccc(S(=O)(=O)Nc5ccc(C)c6c(C#N)c[nH]c56)cc4)c(F)c3F)cc2)c2c(sc(C)c2C)-n2c(C)nnc21` [Example 99, methyl [(6S)-4-(4′-{[(1R)-1-{4-[(3-cyano-4-methyl-1H-indol-7-yl)sulfamoyl]phenyl}ethyl]carbamoyl}-2′,3′-difluoro[1,1′-biphenyl]-4-yl)-2,3,9-trimethyl-6H-thieno[3,2-f][1,2,4]triazolo[4,3-a][1,4]diazepin-6-yl]acetate] as the compound, how does the pIC50 [1] read?
Answer: 9.85

Question: What about the DC50 (BRD4 protein) of the same compound?
Answer: 91 pM

Question: With `COC(=O)C[C@@H]1N=C(c2ccc(-c3ccc(C(=O)NCCc4ccc(S(=O)(=O)Nc5ccc(C)c6c(C#N)c[nH]c56)cc4)c(F)c3F)cc2)c2c(sc(C)c2C)-n2c(C)nnc21` [Example 100, methyl [(6S)-4-{4′-[(2-{4-[(3-cyano-4-methyl-1H-indol-7-yl)sulfamoyl]phenyl}ethyl)carbamoyl]-2′,3′-difluoro[1,1′-biphenyl]-4-yl}-2,3,9-trimethyl-6H-thieno[3,2-f][1,2,4]triazolo[4,3-a][1,4]diazepin-6-yl]acetate] as the compound, how does the pIC50 [1] read?
Answer: 9.80

Question: And the DC50 (BRD4 protein)?
Answer: 85 pM

Question: With `COC(=O)C[C@@H]1N=C(c2ccc(-c3cnc(C(=O)NCc4ccc(S(=O)(=O)Nc5ccc(C)c6c(C#N)c[nH]c56)cc4)cc3C)cc2)c2c(sc(C)c2C)-n2c(C)nnc21` [Example 101, methyl [(6S)-4-(4-{6-[({4-[(3-cyano-4-methyl-1H-indol-7-yl)sulfamoyl]phenyl}methyl)carbamoyl]-4-methylpyridin-3-yl}phenyl)-2,3,9-trimethyl-6H-thieno[3,2-f][1,2,4]triazolo[4,3-a][1,4]diazepin-6-yl]acetate] as the compound, how does the pIC50 [1] read?
Answer: 9.57

Question: What about the DC50 (BRD4 protein) of the same compound?
Answer: 150 pM

Question: Which results are given for `COC(=O)C[C@@H]1N=C(c2ccc(-c3cnc(C(=O)NCCc4ccc(S(=O)(=O)Nc5ccc(C)c6c(C#N)c[nH]c56)cc4)cn3)cc2)c2c(sc(C)c2C)-n2c(C)nnc21` [Example 102, methyl [(6S)-4-(4-{5-[(2-{4-[(3-cyano-4-methyl-1H-indol-7-yl)sulfamoyl]phenyl}ethyl)carbamoyl]pyrazin-2-yl}phenyl)-2,3,9-trimethyl-6H-thieno[3,2-f][1,2,4]triazolo[4,3-a][1,4]diazepin-6-yl]acetate]?
Answer: pIC50 [1]: 10.15; DC50 (BRD4 protein): 36 pM

Question: How did the pIC50 [1] turn out when `COC(=O)C[C@@H]1N=C(c2ccc(-c3cnc(C(=O)N[C@H](C)c4ccc(S(=O)(=O)Nc5ccc(C)c6c(C#N)c[nH]c56)cc4)cn3)cc2)c2c(sc(C)c2C)-n2c(C)nnc21` [Example 103, methyl {(6S)-4-[4-(5-{[(1R)-1-{4-[(3-cyano-4-methyl-1H-indol-7-yl)sulfamoyl]phenyl}ethyl]carbamoyl}pyrazin-2-yl)phenyl]-2,3,9-trimethyl-6H-thieno[3,2-f][1,2,4]triazolo[4,3-a][1,4]diazepin-6-yl}acetate] was run?
Answer: 10.17

Question: And the DC50 (BRD4 protein)?
Answer: 30 pM

Question: `CCc1ccc(NS(=O)(=O)c2ccc(CNC(=O)c3cnc(-c4ccc(C5=N[C@@H](CC(=O)OC)c6nnc(C)n6-c6sc(C)c(C)c65)cc4)cn3)cc2)c2[nH]cc(C#N)c12` [Example 105, methyl [(6S)-4-(4-{5-[({4-[(3-cyano-4-ethyl-1H-indol-7-yl)sulfamoyl]phenyl}methyl)carbamoyl]pyrazin-2-yl}phenyl)-2,3,9-trimethyl-6H-thieno[3,2-f][1,2,4]triazolo[4,3-a][1,4]diazepin-6-yl]acetate] was tested. Which pIC50 [1] did it give?
Answer: 9.89

Question: What about the DC50 (BRD4 protein) of the same compound?
Answer: 54 pM

Question: How did the pIC50 [1] turn out when `CCc1ccc(NS(=O)(=O)c2ccc(CCNC(=O)c3cnc(-c4ccc(C5=N[C@@H](CC(=O)OC)c6nnc(C)n6-c6sc(C)c(C)c65)cc4)cn3)cc2)c2[nH]cc(C#N)c12` [Example 107, methyl [(6S)-4-(4-{5-[(2-{4-[(3-cyano-4-ethyl-1H-indol-7-yl)sulfamoyl]phenyl}ethyl)carbamoyl]pyrazin-2-yl}phenyl)-2,3,9-trimethyl-6H-thieno[3,2-f][1,2,4]triazolo[4,3-a][1,4]diazepin-6-yl]acetate] was run?
Answer: 9.59

Question: What about the DC50 (BRD4 protein) of the same compound?
Answer: 46 pM

Question: `CCc1ccc(NS(=O)(=O)c2ccc(CNC(=O)c3ccc(-c4ccc(C5=N[C@@H](CC(=O)OC)c6nnc(C)n6-c6sc(C)c(C)c65)cc4)cn3)cc2)c2[nH]cc(C#N)c12` [Example 108, methyl [(6S)-4-(4-{6-[({4-[(3-cyano-4-ethyl-1H-indol-7-yl)sulfamoyl]phenyl}methyl)carbamoyl]pyridin-3-yl}phenyl)-2,3,9-trimethyl-6H-thieno[3,2-f][1,2,4]triazolo[4,3-a][1,4]diazepin-6-yl]acetate] was tested. Which pIC50 [1] did it give?
Answer: 9.64

Question: And the DC50 (BRD4 protein)?
Answer: 69 pM

Question: How did the pIC50 [1] turn out when `CCc1ccc(NS(=O)(=O)c2ccc([C@@H](C)NC(=O)c3ccc(-c4ccc(C5=N[C@@H](CC(=O)OC)c6nnc(C)n6-c6sc(C)c(C)c65)cc4)cn3)cc2)c2[nH]cc(C#N)c12` [Example 109, methyl {(6S)-4-[4-(6-{[(1R)-1-{4-[(3-cyano-4-ethyl-1H-indol-7-yl)sulfamoyl]phenyl}ethyl]carbamoyl}pyridin-3-yl)phenyl]-2,3,9-trimethyl-6H-thieno[3,2-f][1,2,4]triazolo[4,3-a][1,4]diazepin-6-yl}acetate] was run?
Answer: 9.44

Question: What about the DC50 (BRD4 protein) of the same compound?
Answer: 82 pM
